From paper PMC8224775, “Five Tetramic Acid Derivatives Isolated from the Iranian Fungus Colpoma quercinum CCTU A372” (Biomolecules, 2021)
Read-outs that look alike come from different tables or passages of the source.

Tests used:
[1] = system: mouse fibroblast L-929; experiment: 5-day MTT cytotoxicity assay; assay type: cell-based; conditions: L-929, 5-day MTT assay
Experimental: (§1) Cytotoxicity of compounds 1‒5 was initially determined against two cancer cell lines (mouse fibroblasts L-929 and human endocervical adenocarcinoma KB-3.1) by using a 5-day MTT assay according to an established procedure.
(§2) In 96-well flat-bottom microtiter plates, cell lines with serial dilution of the test compounds (final range: 37 to 0.6 × 10^−3 µg/mL) were incubated for five days. After five days, the cells were dyed using 3-(4,5-dimethyl-2-thiazolyl)-2,5-diphenyl-2H-tetrazolium bromide (MTT), which is only converted to its purple formazan derivative by living cells. The half-maximum inhibitory concentration (IC50 in µM) was calculated via the colorimetric method in a microplate reader using absorption at 595 nm. In addition, when an inhibition with an IC50 < 50 µM was observed, other cell lines were subjected to the test compounds to evaluate their further cytotoxicity: PC-3 (human prostate adenocarcinoma), SK-OV-3 (human ovary adenocarcinoma), MCF-7 (human breast adenocarcinoma), A-431 (human squamous carcinoma), and A549 (human lung carcinoma). A detailed procedure, including the colorimetric method to determine the cell viability, can be found in the SI.
(§3) Protocol: Cytotoxicity Assay
(§4) The assay was co nducted in 9 6-well flat -botto m microtiter plates using the parameters summarised in T able S2 and as described in [S2]. Cell l ines L-929 and KB-3.1 were incubated at 37 °C under 10 % CO2 in Gibco™ DMEM medium (T her mo Fisher Scientific, Waltham, M A, USA) supplemented with 10 % FBS. A microtiter plate was filled wit h 120 μ L o f this suspensio n (50,000/mL) in each well. Seperatel y, a nother microti ter plate wa s filled wit h 100 μL of gro wth medium in each well. Then, 50 μ L of the test compound solutions (1 mg/mL) were given to wells of the first column in two replicates (one compound per row). Cells without additives and MeOH were used as nega tive controls. Starting from the first column, 50 μ L of the solutions were gradually transferred to the next column, the contents thoroughly mixed, and 50 μL transferred to the following column. This created a serial dilution of the test compounds ranging from 333 μ g/mL to 1.9×10-3 μg/ mL. T he re mai ni ng 50 μ L after column twelve were discarded. From this microtiter plate, 60 μ L of the solutions fro m 111 μ g/mL to 1.9×10-3 μg/mL we r e give n to t he firs t p late co ntai ni ng 1 2 0 μ L of the cell suspensions (i.e. the highest co ncentration 333 μ g/ mL wa s no t used). T his resul ted in fi nal compo und concentratio ns rangi ng fro m 37 μ g/mL to 0.6×10-3 μg/ mL. After 5 days o f incubatio n under the aforementioned incubatio n conditions, the half maximu m inhibitory co ncentrations (IC50) were deter mined using a colorimetric tetrazolium d ye MT T assa y [S3]. For this, 20 μ L of a 5 mg/mL solution of 3-(4,5-dimethyl-2 -thiazolyl) -2,5-diphenyl-2H-tetrazolium br omide (MTT) were added to each well and incubated for two hours at 37 °C. T hen, the microtiter plate was ce ntrifuged (3,000 rpm, 5 min) and the supernatant removed by holding the plate upside-down and gentle shaking. Afterwards, the wells were washed using 100 μ L of phosphate buffered saline (PBS). T he plate was a gain ce ntrifuged a nd the supernata nt re mo ved as described before.
(§5) T hen, 1 0 0 μ L of an isopropanol:HCl solution (1L isopropanol+4 mL HCl 37 % w/v) were added to the wells. After incubating for 10 min at ambient temperature, the absorption of the wells at 595 nm was measured with an Infinite® 200 Pro microplate reader (TECAN, Männedorf, Schweiz). The absorption values of the cells without additives were averaged and set to 100 % cell viability. Then, the means of absorption of the two compound replicates were set in relation to the blank media. T hese percentage values were plotted against the concentratio n range (37 μ g/mL to 0.6×10−3 μg/ mL). T he IC50 value was r ead fro m the plot (in μ g/ mL) a nd the uni ts conversed […]
to μM. […]

[2] = system: endocervical adenocarcinoma KB-3.1; experiment: 5-day MTT cytotoxicity assay; assay type: cell-based, human; conditions: KB-3.1, 5-day MTT assay
Experimental: as §1, §2, §3, §4, §5
to μM. […]

| Structure (SMILES) | IC50 ([1]; Mus musculus, L929, 120 h, read-out: IC50) | IC50 ([2]; Homo sapiens, KB 3-1, 120 h, read-out: IC50) | IC50 [1] | IC50 [2] |
| --- | --- | --- | --- | --- |
| CCC(C(=O)O)C1C(C)=CC2CC(C)CCC2C1(C)C(O)=C1C(=O)C(C)N(C)C1=O (stereo not shown) [compound 2, Colposetin B] | 57.5 µM | 5.7 µM | – | – |
| CC1=CC2CC(C)CCC2C2(C)C(=O)OC(C(=O)O)C(C)C12 (stereo not shown) [compound 3, Colposetin C] | – | – | not active | not active |
| CC(=O)OC(C(=O)O)C(C)C1C(C)=CC2CC(C)CCC2C1(C)C(O)=C1C(=O)C(C)N(C)C1=O (stereo not shown) [compound 1, Colposetin A] | – | – | not active | not active |
| CC(C=CCC(C)CCC=C(C)C(=O)C1=C(O)C(C)N(C)C1=O)=CC(C)C(O)C(=O)O (stereo not shown) [compound 4, Colpomenoic acid A] | – | – | not active | not active |
| CC(C=CCC(C)C=CC=C(C)C(=O)C1=C(O)C(C)N(C)C1=O)=CC(C)C(O)C(=O)O (stereo not shown) [compound 5, Colpomenoic acid B] | – | – | not active | not active |
